Measurements: patent US10150743B2, “Carboxylic acid compounds” (priority 2012, dated 2018)

Experiments:
Type in all cases: cell-based
[1] = molecular target: human TLR8 (Homo sapiens (Human), UniProt Q9NR97); assay: Human TLR8 assay (TLR8/NF-kB/SEAPorter HEK 293 Cell Line); settings: SEAP induction, overnight incubation at 37° C., 0.1% DMSO; read-out: TLR8 pEC50 (converted)
From the text: TLR8/NF-kB/SEAPorter™ HEK 293 Cell Line (Imgenex Corporation) is a stably co-transfected cell line which expresses full-length human TLR8 and the secreted alkaline phosphatase (SEAP) reporter gene under the transcriptional control of an NF-κB response element. TLR8 expression in this cell line has been tested by flow cytometry. Transfectants with stable expression were selected using the antibiotic blasticidin and geneticin. TLR signaling leads to the translocation of NF-κB and activation of the promoter results in expression of the SEAP gene. TLR8-specific activation was assessed by determining the level of SEAP produced following overnight incubation of the cells at 37° C. with the standard compound in the presence of 0.1% (v/v) dimethylsulfoxide (DMSO). Concentration dependent induction of SEAP production by compounds was expressed as the concentration of compound which produced half of the maximal level of SEAP induction for that compound (EC50).

[2] = molecular target: human TLR7 (Homo sapiens (Human), UniProt Q9NYK1); assay: Human TLR7 assay (SEAP reporter in HEK293); settings: SEAP induction, overnight incubation at 37° C., 0.1% DMSO; read-out: TLR7 (pEC50) (converted)
Chain of human TLR7 (Q9NYK1 27-1049): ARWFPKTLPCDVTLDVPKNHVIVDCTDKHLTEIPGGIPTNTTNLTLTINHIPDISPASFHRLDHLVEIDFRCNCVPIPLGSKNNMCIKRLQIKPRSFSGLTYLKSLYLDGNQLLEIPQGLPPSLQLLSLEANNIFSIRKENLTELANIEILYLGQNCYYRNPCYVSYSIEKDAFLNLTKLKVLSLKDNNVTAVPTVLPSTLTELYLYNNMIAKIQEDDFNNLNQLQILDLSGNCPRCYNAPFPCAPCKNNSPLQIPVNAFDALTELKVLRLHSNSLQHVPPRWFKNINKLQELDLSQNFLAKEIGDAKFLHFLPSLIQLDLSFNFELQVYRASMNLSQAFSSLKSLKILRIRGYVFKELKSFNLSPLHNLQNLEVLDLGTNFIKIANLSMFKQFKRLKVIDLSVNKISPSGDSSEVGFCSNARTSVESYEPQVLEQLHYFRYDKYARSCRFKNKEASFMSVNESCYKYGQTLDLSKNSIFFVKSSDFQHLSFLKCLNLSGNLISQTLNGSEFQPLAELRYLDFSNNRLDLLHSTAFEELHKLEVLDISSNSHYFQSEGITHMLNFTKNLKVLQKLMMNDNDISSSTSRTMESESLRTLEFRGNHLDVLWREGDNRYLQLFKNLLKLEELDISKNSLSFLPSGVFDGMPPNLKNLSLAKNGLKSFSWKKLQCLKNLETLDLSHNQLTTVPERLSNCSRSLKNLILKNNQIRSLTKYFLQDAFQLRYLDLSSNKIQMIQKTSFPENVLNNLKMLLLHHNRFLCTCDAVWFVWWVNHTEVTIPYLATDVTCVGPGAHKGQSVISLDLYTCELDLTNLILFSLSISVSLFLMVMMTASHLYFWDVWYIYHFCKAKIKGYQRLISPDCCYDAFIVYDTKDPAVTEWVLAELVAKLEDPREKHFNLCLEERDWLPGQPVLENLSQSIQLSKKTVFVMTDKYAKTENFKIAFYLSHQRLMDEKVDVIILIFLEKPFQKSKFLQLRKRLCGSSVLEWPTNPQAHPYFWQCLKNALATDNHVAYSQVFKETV
From the text: Recombinant human TLR7 was stably expressed in a HEK293 cell line already stably expressing the pNiFty2-SEAP reporter plasmid; integration of the reporter gene was maintained by selection with the antibiotic zeocin. The most common variant sequence of human TLR7 (represented by the EMBL sequence AF240467) was cloned into the mammalian cell expression vector pUNO and transfected into this reporter cell-line. Transfectants with stable expression were selected using the antibiotic blasticidin. In this reporter cell-line, expression of secreted alkaline phosphatase (SEAP) is controlled by an NFkB/ELAM-1 composite promoter comprising five NFkB sites combined with the proximal ELAM-1 promoter. TLR signaling leads to the translocation of NFkB and activation of the promoter results in expression of the SEAP gene. TLR7-specific activation was assessed by determining the level of SEAP produced following overnight incubation of the cells at 37° C. with the standard compound in the presence of 0.1% (v/v) dimethylsulfoxide (DMSO). Concentration dependent induction of SEAP production by compounds was expressed as the concentration of compound which produced half of the maximal level of SEAP induction for that compound (EC50).

[3] = molecular target: hERG potassium channel (Homo sapiens (Human), UniProt Q12809); assay: hERG Analysis - Method 2 (QPATCH HT, CHO-hERG cells); settings: half-maximal inhibition concentration, 22±2° C.
Chain of hERG potassium channel (Q12809 whole entry): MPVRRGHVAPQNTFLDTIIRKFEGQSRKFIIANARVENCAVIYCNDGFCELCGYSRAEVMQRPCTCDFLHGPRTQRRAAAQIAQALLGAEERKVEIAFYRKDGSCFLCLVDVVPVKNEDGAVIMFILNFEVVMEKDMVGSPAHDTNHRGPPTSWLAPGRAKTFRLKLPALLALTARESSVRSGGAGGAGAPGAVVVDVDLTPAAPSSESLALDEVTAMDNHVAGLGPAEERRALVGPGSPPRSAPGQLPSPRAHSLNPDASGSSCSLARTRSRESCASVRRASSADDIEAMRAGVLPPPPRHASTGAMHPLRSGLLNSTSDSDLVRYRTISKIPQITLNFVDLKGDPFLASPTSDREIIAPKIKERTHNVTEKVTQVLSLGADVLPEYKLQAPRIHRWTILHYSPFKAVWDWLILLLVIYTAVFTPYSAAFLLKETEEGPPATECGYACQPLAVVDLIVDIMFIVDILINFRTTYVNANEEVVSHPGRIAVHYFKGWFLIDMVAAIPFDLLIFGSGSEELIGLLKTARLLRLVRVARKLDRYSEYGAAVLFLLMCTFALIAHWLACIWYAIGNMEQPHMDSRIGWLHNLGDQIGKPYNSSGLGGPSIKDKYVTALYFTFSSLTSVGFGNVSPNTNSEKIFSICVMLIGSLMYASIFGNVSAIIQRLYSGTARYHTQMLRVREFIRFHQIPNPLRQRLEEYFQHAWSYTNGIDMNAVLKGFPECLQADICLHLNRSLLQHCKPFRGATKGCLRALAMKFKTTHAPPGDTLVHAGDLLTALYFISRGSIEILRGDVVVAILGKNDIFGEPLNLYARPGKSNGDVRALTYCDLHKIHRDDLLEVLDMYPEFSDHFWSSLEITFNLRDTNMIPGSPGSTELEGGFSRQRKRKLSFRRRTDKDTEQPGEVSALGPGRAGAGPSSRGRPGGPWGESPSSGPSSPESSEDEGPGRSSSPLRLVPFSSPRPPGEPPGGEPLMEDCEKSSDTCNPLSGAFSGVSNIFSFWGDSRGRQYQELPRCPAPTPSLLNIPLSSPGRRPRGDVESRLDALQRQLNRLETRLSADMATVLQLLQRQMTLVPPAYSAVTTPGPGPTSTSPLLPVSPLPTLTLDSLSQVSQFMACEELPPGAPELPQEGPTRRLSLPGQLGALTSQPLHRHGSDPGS
Method: The hERG potassium current was measured in a hERG-stably-expressing Chinese hamster ovary K1 (CHO) cells. The experiments were performed using an automated planar patch-clamp system QPATCH HT (Sophion Bioscience A/S). The application of pressure for forming gigaseals and whole-cell patch clamp configuration were established using the QPATCH assay software. Patch-clamp experiments were performed in voltage-clamp mode and whole-cell currents were recorded from individual cells. The following stimulation protocol was applied to investigate the effects of compounds on hERG potassium channel: The membrane potential was held at −80 mV and repetitively (every 15 s) depolarized to +20 mV for 5 s after the pulse to −50 mV for 20 ms served to define the baseline, followed by repolarizing step to −50 mV for 5 s to evaluate of the tail current amplitude. Experiments were conducted at room temperature (22±2° C.).
Effects of compounds were determined from cumulative applications of increasing 4 concentrations and calculated as percent of blocked current. The data points were fitted with Hill equation to calculate half-maximal inhibition concentrations. The test solution includes: Extracellular solution (mM): 2 mM of CaCl2, 1 mM of MgCl2, 10 mM of HEPES, 4 mM of KCl, 145 mM of NaCl, and 10 mM of Glucose; and Intracellular solution (mM): 5.4 mM of CaCl2, 1.8 mM of MgCl2, 10 mM of HEPES, 31 mM of KOH, 10 mM of EGTA, 120 mM of KCl, and 4 mM of ATP.

[4] = molecular target: hERG ion channel (Homo sapiens (Human), UniProt Q12809); assay: hERG Analysis - Method 1 (IONWORKS HT, CHO-hERG cells); settings: ~21° C.
Chain of hERG ion channel (Q12809 whole entry): as above
Method: The hERG-expressing Chinese hamster ovary K1 (CHO) cells described by (Persson, Carlsson, Duker, & Jacobson, 2005) were grown to semi-confluence at 37° C. in a humidified environment (5% CO2) in F-12 Ham medium containing L-glutamine, 10% foetal calf serum (FCS) and 0.6 mg/mL hygromycin (all available from Sigma-Aldrich). Prior to use, the monolayer was washed using a pre-warmed (37° C.) 3 mL aliquot of Versene 1:5,000 (Invitrogen) After aspiration of this solution the flask was incubated at 37° C. in an incubator with a further 2 mL of Versene 1:5,000 for a period of 6 minutes. Cells were then detached from the bottom of the flask by gentle tapping and 10 mL of Dulbecco's Phosphate-Buffered Saline containing calcium (0.9 mM) and magnesium (0.5 mM) (PBS; Invitrogen) was then added to the flask and aspirated into a 15 mL centrifuge tube prior to centrifugation (50 g, for 4 mins). The resulting supernatant was discarded and the pellet gently re-suspended in 3 mL of PBS. A 0.5 mL aliquot of cell suspension was removed and the number of viable cells (based on trypan blue exclusion) was determined in an automated reader (Cedex; Innovatis) so that the cell re-suspension volume can be adjusted with PBS to give the desired final cell concentration. It is the cell concentration at this point in the assay that is quoted when referring to this parameter. CHO-Kv1.5 cells, which were used to adjust the voltage offset on IONWORKS™ HT, were maintained and prepared for use in the same way.
The principles and operation of this device have been described by (Schroeder, Neagle, Trezise, & Worley, 2003). Briefly, the technology is based on a 384-well plate (PATCHPLATE™) in which a recording was attempted in each well by using suction to position and hold a cell on a small hole separating two isolated fluid chambers. Once sealing had taken place, the solution on the underside of the PATCHPLATE™ was changed to one containing amphotericin B. This permeablises the patch of cell membrane covering the hole in each well and, in effect, allowed a perforated, whole-cell patch clamp recording to be made.
A β-test IONWORKS™ HT from Essen Instrument was used. […] (˜21° C.), as follows. The reservoir in the “Buffer” position was loaded with 4 mL of PBS and that in the “Cells” position with the CHO-hERG cell suspension described above. A 96-well plate (V-bottom, Greiner Bio-one) containing the compounds to be tested (at 3-fold above their final test concentration) was placed in the “Plate 1” position and a PATCHPLATE™ was clamped into the PATCHPLATE™ station. […]

Chain of human TLR8 (Q9NR97 27-1041): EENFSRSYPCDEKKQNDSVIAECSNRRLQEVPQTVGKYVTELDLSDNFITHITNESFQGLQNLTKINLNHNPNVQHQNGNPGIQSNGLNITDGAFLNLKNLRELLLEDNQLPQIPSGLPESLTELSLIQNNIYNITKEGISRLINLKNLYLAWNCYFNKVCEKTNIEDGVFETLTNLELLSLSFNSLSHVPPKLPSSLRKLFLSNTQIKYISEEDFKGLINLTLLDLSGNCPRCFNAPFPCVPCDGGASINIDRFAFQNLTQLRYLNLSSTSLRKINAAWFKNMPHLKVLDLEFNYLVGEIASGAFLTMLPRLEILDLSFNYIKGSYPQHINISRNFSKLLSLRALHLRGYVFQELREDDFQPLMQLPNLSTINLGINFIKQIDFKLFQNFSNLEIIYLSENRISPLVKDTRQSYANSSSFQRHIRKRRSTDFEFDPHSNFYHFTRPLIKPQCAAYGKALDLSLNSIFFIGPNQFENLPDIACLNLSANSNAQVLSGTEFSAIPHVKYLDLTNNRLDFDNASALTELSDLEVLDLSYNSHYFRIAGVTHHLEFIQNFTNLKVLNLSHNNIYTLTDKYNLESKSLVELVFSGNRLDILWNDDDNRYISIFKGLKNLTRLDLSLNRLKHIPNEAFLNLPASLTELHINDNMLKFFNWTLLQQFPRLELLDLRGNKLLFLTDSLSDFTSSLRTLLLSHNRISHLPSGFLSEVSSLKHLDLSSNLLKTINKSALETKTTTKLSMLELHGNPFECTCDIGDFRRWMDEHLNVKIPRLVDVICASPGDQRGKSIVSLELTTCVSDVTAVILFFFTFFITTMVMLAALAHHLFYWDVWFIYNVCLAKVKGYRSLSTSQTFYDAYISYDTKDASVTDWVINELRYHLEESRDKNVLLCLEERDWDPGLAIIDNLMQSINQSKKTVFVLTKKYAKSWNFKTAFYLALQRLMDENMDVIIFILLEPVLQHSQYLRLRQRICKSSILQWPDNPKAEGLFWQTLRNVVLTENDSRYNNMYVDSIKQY

| SMILES | EC50 [1] [nM] | EC50 [2] [nM] | IC50 [3] [nM] | IC50 [4] [nM] |
| --- | --- | --- | --- | --- |
| CCC[C@@H](CCO)Nc1nc(N)nc(C)c1Cc1ccc(Cn2cncc2C(=O)O)cc1OC [Example 14, (S)-1-(4-((2-amino-4-(1-hydroxyhexan-3-ylamino)-6-methylpyrimidin-5-yl)methyl)-3-methoxybenzyl)-1H-imidazole-5-carboxylic acid] | > 10000 | 2000 | – | – |
| CCC[C@@H](CCO)Nc1nc(N)nc(C)c1Cc1ccc(OCCCN2CCC[C@@H]2C(=O)O)cc1OC [Example 8, (R)-1-(3-(4-((2-amino-4-((S)-1-hydroxyhexan-3-ylamino)-6-methylpyrimidin-5-yl)methyl)-3-methoxyphenoxy)propyl)pyrrolidine-2-carboxylic acid] | > 10000 | 126 | > 10000 | – |
| CCCCNc1nc(N)nc(C)c1Cc1ccc(CN(CC)CC(=O)O)cc1OC [Example 2, 2-((4-((2-amino-4-(butylamino)-6-methylpyrimidin-5-yl)methyl)-3-methoxybenzyl) (ethyl)amino)acetic acid] | > 10000 | 794 | > 10000 | – |
| CCC[C@@H](CCO)Nc1nc(N)nc(C)c1Cc1ccc(OCCCN2CCC[C@H]2C(=O)O)cc1OC [Example 9, (S)-1-(3-(4-((2-amino-4-((S)-1-hydroxyhexan-3-ylamino)-6-methylpyrimidin-5-yl)methyl)-3-methoxyphenoxy)propyl)pyrrolidine-2-carboxylic acid] | > 10000 | 200 | > 10000 | – |
| CCC[C@@H](CCO)Nc1nc(N)nc(C)c1Cc1ccc(CN(CC)CCC(=O)O)cc1OC [Example 5, (S)-3-((4-((2-amino-4-(1-hydroxyhexan-3-ylamino)-6-methylpyrimidin-5-yl)methyl)-3-methoxybenzyl)(ethyl)amino)propanoic acid] | > 10000 | 50.1 | > 10000 | > 33000 |
| CCC[C@@H](CCO)Nc1nc(N)nc(C)c1Cc1ccc(CN(CC(=O)O)C(C)=O)cc1OC [Example 7, (S)-2-(N-(4-((2-amino-4-(1-hydroxyhexan-3-ylamino)-6-methylpyrimidin-5-yl)methyl)-3-methoxybenzyl)acetamido)acetic acid] | > 10000 | 251 | > 10000 | – |
| CCC[C@@H](CCO)Nc1nc(N)nc(C)c1Cc1ccc(OCCCN(CC)CC(=O)O)cc1OC [Example 11, (S)-2-((3-(4-((2-amino-4-(1-hydroxyhexan-3-ylamino)-6-methylpyrimidin-5-yl)methyl)-3-methoxyphenoxy)propyl)(ethyl)amino)acetic acid] | > 10000 | 200 | – | – |
| CCC[C@@H](CCO)Nc1nc(N)nc(C)c1Cc1ccc(CN2CCC[C@@H]2C(=O)O)cc1OC [Example 13, (R)-1-(4-((2-amino-4-((S)-1-hydroxyhexan-3-ylamino)-6-methylpyrimidin-5-yl)methyl)-3-methoxybenzyl)pyrrolidine-2-carboxylic acid] | > 10000 | 200 | – | – |
| CCC[C@@H](CCO)Nc1nc(N)nc(C)c1Cc1ccc(OCCCN(CC)CCC(=O)O)cc1OC [Example 10, (S)-3-((3-(4-((2-amino-4-(1-hydroxyhexan-3-ylamino)-6-methylpyrimidin-5-yl)methyl)-3-methoxyphenoxy)propyl)(ethyl)amino)propanoic acid] | > 10000 | 251 | – | – |
| CCC[C@@H](CCO)Nc1nc(N)nc(C)c1Cc1ccc(CN(CCC(=O)O)CC(F)F)cc1OC [Example 6, (S)-3-((4-((2-amino-4-(1-hydroxyhexan-3-ylamino)-6-methylpyrimidin-5-yl)methyl)-3-methoxybenzyl)(2,2-difluoroethyl)amino)propanoic acid] | > 10000 | 251 | > 10000 | > 33000 |
| CCC[C@@H](CCO)Nc1nc(N)nc(C)c1Cc1ccc(CN(CC)CC(=O)O)cc1OC [Example 1, (S)-2-((4-((2-amino-4-(1-hydroxyhexan-3-ylamino)-6-methylpyrimidin-5-yl)methyl)-3-methoxybenzyl)(ethyl)amino)acetic acid] | > 10000 | 158 | > 10000 | > 33000 |
| CCC[C@@H](CCO)Nc1nc(N)nc(C)c1Cc1ccc(OCCCN(CC(=O)O)CC(F)F)cc1OC [Example 12, (S)-2-((3-(4-((2-amino-4-(l-hydroxyhexan-3-ylamino)-6-methylpyrimidin-5-yl)methyl)-3-methoxyphenoxy)propyl)(2,2-difluoroethyl)amino)acetic acid] | > 10000 | 100 | – | – |
